Laboratory results reported in patent US11547652B2, “Combination products and cosmetic compositions for controlling skin disorders and skin aging that affect keratinocytes and/or fibroblasts and the dermis” (NUTRICOS Technologies, priority 2014, dated 2023).

Columns and labels:
[1] = tested on: NHEK cells (Normal Human Epidermal Keratinocytes); assay: Hyaluronic acid production by NHEK cells (ELISA on supernatant); format: cell-based; conditions: 72 hours of cultivation, hyaluronic acid 40 to 6000 ng/ml, glucosamine sulfate 0.25 to 25 μg/ml, FIG. 1
Experimental: Normal human epidermal keratinocytes were cultured at 37° C. under 5% CO2 in a medium keratinocyte-SFM culture, supplemented with epidermal growth factor (EGF; 0.25 ng/ml), a pituitary extract (25 μg/ml) and an antibiotic (gentamicin 25 μg/ml) in 96-well plates for 24 h without stimulation. Glucosamine and/or hyaluronic acid are then added to the cultivation medium alone or in combination at concentrations of 40 to 6000 ng/ml hyaluronic acid and 0.25 to 25 μg/ml to glucosamine sulfate. After 72 hours of cultivation under these conditions, the supernatant was collected to quantify the hyaluronic acid produced by the cells using an ELISA Duoset Hyaluronan kit marketed by the company R & D System (DY3614 reference).

[2] = tested on: NHDF cells (Normal Human Dermal Fibroblasts); assay: Hyaluronic acid production by NHDF cells (ELISA on supernatant); format: cell-based; conditions: 72 hours, glucosamine 0.1 to 100 μg/ml, hyaluronic acid 40 to 6000 ng/ml, source of collagen and hyaluronic acid 4 to 4000 ng/ml, FIG. 2
Experimental: Normal human dermal fibroblasts (NHDF) were cultured at 37° C. under 5% CO2 in a DMEM culture medium supplemented with glutamine (2 mM); calf serum (1%), penicillin (50 U/ml) and streptomycin ([…]). Glucosamine (0.1 to 100 μg/ml) and/or hyaluronic acid (from 40 to 6000 ng/ml) and/or a source of collagen and hyaluronic acid (in a ratio of between 0.07% and 15%) at concentrations ranging from 4 to 4000 ng/ml were then added to the cultivation medium alone or in combination. After 72 hours of cultivation under these conditions, the supernatant was collected to quantify the hyaluronic acid produced by the cells using an ELISA Duoset Hyaluronan kit marketed by the company R & D System (DY3614 reference).

Molecule | hyaluronic acid production by human keratinocytes in vitro [1] | hyaluronic acid production by human fibroblasts in vitro [2]
hyaluronic acid | does not stimulate the synthesis of hyaluronic acid | did not stimulate the synthesis of hyaluronic acid
N[C@H]1C(O)O[C@H](CO)[C@@H](O)[C@@H]1O.O=S(=O)(O)O (stereo partly shown) [glucosamine sulfate] | induction of hyaluronic acid production | lack of stimulation
